Test system: hearing loss associated with otosclerosis
Settings: hearing loss patients; 2 mg strontium ranelate daily for 6 months; symptoms measured monthly
Experimental: Hearing Loss. Hearing loss patients generally experience progressive loss of hearing.
The following populations having the symptom stated are treated with a dosing schedule of 2 mg strontium ranelate daily for 6 months.
All symptoms will be measured monthly. All improvements will be recorded and assessed.

Compound: N#Cc1c(N(CC(=O)[O-])CC(=O)[O-])sc(C(=O)[O-])c1CC(=O)[O-].[Sr+2].[Sr+2] [strontium ranelate]
- hearing (gains or cessation of the progression of hearing loss): some hearing gains
